Entries after “also recorded” stand apart in the source; their conditions may differ.
Columns and labels:
[1] = system: GST-Braf kinase domain and biotinylated E3 substrate adapter (VHL/EloB/EloC complex or CRBN318-425); assay: Dimerization assay (AlphaScreen/AlphaLisa), RAF/E3 dimerization; format: binding; details: Table 17; relative value; compounds 4 fold serial dilutions from 20 μM
[2] = target: T1, CRAF (CRAF fusion protein with a fluorescent protein) in Calu-6 cells (Homo sapiens, UniProt P04049); assay: Degradation assay, fluorescent CRAF fusion protein levels in Calu-6 cells (IncuCyte S3); format: cell-based; details: fluorescence/confluence
T1 construct: fluorescent protein (green); expressed in transfected cells; host or cells: Calu-6
T1 sequence (P04049 whole entry, the tested form may be a part): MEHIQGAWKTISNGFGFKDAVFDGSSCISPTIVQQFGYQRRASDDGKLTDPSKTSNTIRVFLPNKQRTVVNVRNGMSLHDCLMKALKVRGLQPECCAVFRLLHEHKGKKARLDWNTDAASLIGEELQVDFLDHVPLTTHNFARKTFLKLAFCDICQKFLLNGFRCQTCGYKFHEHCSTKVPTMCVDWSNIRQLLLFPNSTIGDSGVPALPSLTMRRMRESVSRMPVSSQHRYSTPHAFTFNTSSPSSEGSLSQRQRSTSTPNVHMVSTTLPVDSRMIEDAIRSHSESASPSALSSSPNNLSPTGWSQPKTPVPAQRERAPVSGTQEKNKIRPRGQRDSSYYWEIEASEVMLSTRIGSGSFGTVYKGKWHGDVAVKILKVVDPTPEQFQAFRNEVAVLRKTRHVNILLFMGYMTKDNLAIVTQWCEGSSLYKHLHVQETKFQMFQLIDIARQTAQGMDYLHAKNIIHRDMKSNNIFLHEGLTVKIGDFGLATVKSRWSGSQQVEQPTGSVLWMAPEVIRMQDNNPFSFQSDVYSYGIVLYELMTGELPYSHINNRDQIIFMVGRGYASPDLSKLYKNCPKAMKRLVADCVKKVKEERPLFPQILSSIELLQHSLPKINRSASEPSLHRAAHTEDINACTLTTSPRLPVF
Description: Calu-6 cells were stably transfected with a CRAF fusion protein with a fluorescent protein attached to the C-terminus of CRAF in order to monitor protein levels via fluorescence. Cells were seeded into a 96-well plate and allowed to adhere overnight. The next day cells are treated with compounds at the doses indicated in the table below and analyzed over time. Data was collected by monitoring Fluorescent CRAF protein levels an IncuCyte S3 Live Cell Analysis System (Essen BioScience). […] Calu6_CRAF fusion protein cells are imaged and analyzed using an Incucyte S3 live-cell analysis system (Essen Biosciences). Fluorescence signal is due to expression of the fluorescent protein covalently fused to the C-terminus of CRAF and degradation is assessed by measuring fluorescence/confluence (˜cell number) after treatment with compounds of the present disclosure. Phase contrast images are analyzed using Incucyte S3 software. Percent confluence is calculated using a phase contrast mask to quantify the area of the image occupied by the Calu6_CRAF fusion protein cells. Fluorescent images are analyzed using Incucyte S3 software. Green Corrected Units (GCU) is calculated using a fluorescence mask to quantify the area of the image occupied by green fluorescent signal and the intensity of the signal. […] As discussed above, degradation is measured as a function of fluorescence/confluence.

BRAF/VHL = BRAF/VHL (Homo sapiens, UniProt P15056+P40337); details: FIG. 12; various concentrations
BRAF/VHL, sequence (P15056 457-717 limits assumed): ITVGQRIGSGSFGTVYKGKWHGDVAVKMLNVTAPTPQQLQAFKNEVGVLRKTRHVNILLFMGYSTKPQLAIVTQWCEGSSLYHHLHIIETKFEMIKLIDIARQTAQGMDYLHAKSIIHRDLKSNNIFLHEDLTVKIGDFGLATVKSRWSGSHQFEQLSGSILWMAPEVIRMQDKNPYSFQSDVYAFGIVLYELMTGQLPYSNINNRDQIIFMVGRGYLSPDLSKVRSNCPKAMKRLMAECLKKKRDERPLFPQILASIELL
BRAF/VHL, sequence (P40337 54-213 limits assumed): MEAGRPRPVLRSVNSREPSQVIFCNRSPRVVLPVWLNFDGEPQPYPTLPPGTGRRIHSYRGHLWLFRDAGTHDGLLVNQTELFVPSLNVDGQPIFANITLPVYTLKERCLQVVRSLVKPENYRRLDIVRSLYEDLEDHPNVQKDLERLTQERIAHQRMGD
BRAF/VHL, sequence (Q15370 whole entry partner): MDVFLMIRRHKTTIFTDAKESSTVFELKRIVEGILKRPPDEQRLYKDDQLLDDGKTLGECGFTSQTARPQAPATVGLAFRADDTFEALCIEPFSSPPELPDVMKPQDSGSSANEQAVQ
BRAF/VHL, sequence (Q15369 17-112 partner limits assumed): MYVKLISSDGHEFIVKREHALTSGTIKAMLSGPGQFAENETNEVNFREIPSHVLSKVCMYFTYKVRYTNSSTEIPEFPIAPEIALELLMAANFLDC

| RAF/E3 Dimerization [1] | CRAF degradation in Calu6 cells over time ([2]; 3 μM, FIG. 4, 8, 9) | Compound | further results |
| --- | --- | --- | --- |
| +++ (50% > RAF/E3 Dimerization ≥ 25) | – | Cc1ncc(NC(=O)c2cccc(C(F)(F)F)c2)cc1-c1cnc(O[C@H]2CCO[C@@H](COCc3cn(CCCCCC(=O)N[C@@H](C(=O)N4C[C@H](O)C[C@H]4C(=O)N[C@@H](C)c4ccc(-c5scnc5C)cc4)C(C)(C)C)nn3)C2)c(N2CCOCC2)c1 (relative stereo) [Compound 2.004, (2S,4R)-1-((R)-3,3-dimethyl-2-(6-(4-((((2R*,4S*)-4-((2′-methyl-5-morpholino-5′-(3-(trifluoromethyl)benzamido)-[3,3′-bipyridin]-6-yl)oxy)tetrahydro-2H-pyran-2-yl)methoxy)methyl)-1H-1,2,3-triazol-1-yl)hexanamido)butanoyl)-4-hydroxy-N—((S)-1-(4-(4-methylthiazol-5-yl)phenyl)ethyl)pyrrolidine-2-carboxamide] | CRAF degradation in Calu6 cells over time ([2]; 1.5 μM, FIG. 3): CRAF degradation |
| + (5% > RAF/E3 Dimerization) | CRAF degradation | Cc1ccc(NC(=O)c2cccc(C(F)(F)F)c2)cc1-c1cnc(OCCc2cn(CCCCCC(=O)Nc3cccc4c3C(=O)N(C3CCC(=O)NC3=O)C4=O)nn2)c(N2CCOCC2)c1 (stereo not drawn) [Compound 1.009, N-(3-(6-(2-(1-(6-((2-(2,6-dioxopiperidin-3-yl)-1,3-dioxoisoindolin-4-yl)amino)-6-oxohexyl)-1H-1,2,3-triazol-4-yl)ethoxy)-5-morpholinopyridin-3-yl)-4-methylphenyl)-3-(trifluoromethyl)benzamide] | – |
| +++++ (RAF/E3 Dimerization ≥75%) | CRAF degradation | Cc1ncc(NC(=O)c2cccc(C(F)(F)F)c2)cc1-c1cnc(OCCOCCOCCOCCOCCOCC(=O)N[C@@H](C(=O)N2C[C@H](O)C[C@H]2C(=O)N[C@@H](C)c2ccc(-c3scnc3C)cc2)C(C)(C)C)c(N2CCOCC2)c1 [Compound 2.001, (2S,4R)-1-((R)-2-(tert-butyl)-20-((2′-methyl-5-morpholino-5′-(3-(trifluoromethyl)-benzamido)-[3,3′-bipyridin]-6-yl)oxy)-4-oxo-6,9,12,15,18-pentaoxa-3-azaicosan-1-oyl)-4-hydroxy-N—((S)-1-(4-(4-methylthiazol-5-yl)phenyl)ethyl)pyrrolidine-2-carboxamide] | – |
| – | – | Cc1ncc(NC(=O)c2cccc(C(F)(F)F)c2)cc1-c1cnc(OCCOCCOCCOCc2cn(CCCCCC(=O)N[C@@H](C(=O)N3C[C@@H](O)C[C@@H]3C(=O)N[C@@H](C)c3ccc(-c4scnc4C)cc3)C(C)(C)C)nn2)c(N2CCOCC2)c1 [Compound 2.010, (2R,4S)-1-((R)-3,3-dimethyl-2-(6-(4-((2-(2-(2-((2′-methyl-5-morpholino-5′-(3-(trifluoromethyl)benzamido)-[3,3′-bipyridin]-6-yl)oxy)ethoxy)ethoxy)ethoxy)methyl)-1H-1,2,3-triazol-1-yl)hexanamido)butanoyl)-4-hydroxy-N—((S)-1-(4-(4-methylthiazol-5-yl)phenyl)ethyl)pyrrolidine-2-carboxamide] | CRAF degradation in Calu6 cells over time ([2]; 1.67 μM, FIG. 13, FIG. 14): no CRAF degradation; also recorded: does not significantly reduce the relative amount of CRAF |
| +++ (50% > RAF/E3 Dimerization ≥ 25) | CRAF degradation | Cc1ccc(NC(=O)c2cccc(C(F)(F)F)c2)cc1-c1cnc(OCCOCc2cn(CCCCCC(=O)Nc3cccc4c3C(=O)N(C3CCC(=O)NC3=O)C4=O)nn2)c(N2CCOCC2)c1 (stereo not drawn) [Compound 2.012, N-(3-(6-(2-((1-(6-((2-(2,6-dioxopiperidin-3-yl)-1,3-dioxoisoindolin-4-yl)amino)-6-oxohexyl)-1H-1,2,3-triazol-4-yl)methoxy)ethoxy)-5-morpholinopyridin-3-yl)-4-methylphenyl)-3-(trifluoromethyl)benzamide] | – |
| +++++ (RAF/E3 Dimerization ≥75%) | – | Cc1ncc(NC(=O)c2cccc(C(F)(F)F)c2)cc1-c1cnc(OCCOCCOCCOCCOCC(=O)NCCCCCc2cccc3c2CN(C2CCC(=O)NC2=O)C3=O)c(N2CCOCC2)c1 (stereo not drawn) [Compound 2.014, N-(5-(2-(2,6-dioxopiperidin-3-yl)-1-oxoisoindolin-4-yl)pentyl)-14-((2′-methyl-5-morpholino-5′-(3-(trifluoromethyl)benzamido)-[3,3′-bipyridin]-6-yl)oxy)-3,6,9,12-tetraoxatetradecan-1-amide] | CRAF degradation in Calu6 cells over time ([2]; 12.5 μM, FIG. 7): CRAF degradation |
| +++ (50% > RAF/E3 Dimerization ≥ 25) | – | Cc1ncc(NC(=O)c2cccc(C(F)(F)F)c2)cc1-c1cnc(OCCOCCOCC(=O)NCCCCCCc2cccc3c2CN(C2CCC(=O)NC2=O)C3=O)c(N2CCOCC2)c1 (stereo not drawn) [Compound 2.015, N-(6′-(2-(2-(2-((6-(2-(2,6-dioxopiperidin-3-yl)-1-oxoisoindolin-4-yl)hexyl)amino)-2-oxoethoxy)ethoxy)ethoxy)-2-methyl-5′-morpholino-[3,3′-bipyridin]-5-yl)-3-(trifluoromethyl)benzamide] | CRAF degradation in Calu6 cells over time ([2]; 2 μM, FIG. 10): CRAF degradation |
| +++++ (RAF/E3 Dimerization ≥75%) | – | Cc1ncc(NC(=O)c2cccc(C(F)(F)F)c2)cc1-c1cnc(OCCOCCOCCOCCOCC(=O)NCCOCCCc2cccc3c2CN(C2CCC(=O)NC2=O)C3=O)c(N2CCOCC2)c1 (stereo not drawn) [Compound 2.016, N-(2-(3-(2-(2,6-dioxopiperidin-3-yl)-1-oxoisoindolin-4-yl)propoxy)ethyl)-14-((2′-methyl-5-morpholino-5′-(3-(trifluoromethyl)benzamido)-[3,3′-bipyridin]-6-yl)oxy)-3,6,9,12-tetraoxatetradecan-1-amide] | CRAF degradation in Calu6 cells over time ([2]; 5 μM, FIG. 11): CRAF degradation |
| ++ (25% > RAF/E3 Dimerization ≥ 5%) | – | Cc1ncc(NC(=O)c2cccc(C(F)(F)F)c2)cc1-c1cnc(OCCOCCOCCOCC(=O)NCCOCCCc2cccc3c2C(=O)N(C2CCC(=O)NC2=O)C3=O)c(N2CCOCC2)c1 (stereo not drawn) [Compound 2.021, N-(6′-((18-(2-(2,6-dioxopiperidin-3-yl)-1,3-dioxoisoindolin-4-yl)-11-oxo-3,6,9,15-tetraoxa-12-azaoctadecyl)oxy)-2-methyl-5′-morpholino-[3,3′-bipyridin]-5-yl)-3-(trifluoromethyl)-benzamide] | CRAF degradation in Calu6 cells over time ([2]; 15 μM, FIG. 6): CRAF degradation |
| – | – | Cc1ncc(NC(=O)c2cccc(C(F)(F)F)c2)cc1-c1cnc(OC2CCOCC2)c(N2CCOCC2)c1 [RAF709, reference compound] | BRAF/VHL dimerization (BRAF/VHL): does not cause dimerization |

Reference: patent US10787443B2, “RAF-degrading conjugate compounds” (ZAMBONI CHEM SOLUTIONS INC., priority 2017, dated 2020)
